# Columns and labels:
# Type in all cases: in vivo
# [1] = test system: wheat, spring (spring wheat, Triticum aestivum); experiment: Test D preemergence; details: scale 0 to 100
# Procedure, shortened: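 Seeds sown in silt loam soil and sprayed preemergence with test chemicals in a non-phytotoxic solvent mixture containing surfactant. After about 21 d in a controlled growth environment, plants were compared with untreated controls and rated visually from 0 (no effect) to 100 (complete control).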
# [2] = test system: poinsettia, wild (wild poinsettia, Euphorbia heterophylla); experiment: Test E preemergence; details: scale 0 to 100
# Procedure, shortened: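 Visual ratings from 0 (no effect) to 100 (complete control) were made versus controls 14 to 21 d after treatment. Seeds in silt loam were treated preemergence, or plants 2 to 18 cm tall in peat-based medium postemergence, with the test chemical in a surfactant-containing, non-phytotoxic solvent mixture, then held in a greenhouse.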
# [3] = test system: ivy-leaved morning glory (Ipomoea hederacea); experiment: Test G Pre-Emergence Protocol; details: Ipomoea, pre-emergence, 312 h, evaluated after 13 days; for pest or weed control at 15.625 g/ha: 15.625 g ai/ha, read-out: Morning-glory, Ivy-leaved damage rating (100=total damage to plant; 0=no damage to plant); for pest or weed control at 62.5 g/ha: 62.5 g ai/ha, 100=total damage to plant, 0=no damage to plant, read-out: plant damage rating, Morningglory, Ivy-leaved; for pest or weed control at 250 g/ha: 250 g ai/ha, read-out: Morningglory, Ivy-leaved damage rating (100=total damage to plant; 0=no damage to plant)
# Description: (§1) Seeds of corn (Zea mays), giant foxtail (Setaria faberi), barnyardgrass (Echinochloa crus-galli), ivy-leaved morning glory (Ipomoea hederacea), redroot pigweed (Amaranthus retroflexus) and velvetleaf (Abutilon theophrasti) were sown in standard soil in pots. After cultivation for one day under controlled conditions in a glasshouse (at 24/16° C., day/night; 14 hours light; 65% humidity), the plants were sprayed with an aqueous spray solution derived from the formulation of the technical active ingredient in acetone/water (50:50) solution containing 0.5% Tween 20 (polyoxyethylene sorbitan monolaurate, CAS RN 9005-64-5) to give a final dose of 15.625, 62.5 or 250 g/ha of test compound.
# (§2) The test plants were then grown on under controlled conditions in a glasshouse (at 24/16° C., day/night; 14 hours light; 65% humidity) and watered twice daily. After 13 days the test was evaluated (100=total damage to plant; 0=no damage to plant). A dash (-) means no test result.
# [4] = test system: giant foxtail (Setaria faberi); experiment: Test G Pre-Emergence Protocol; details: Setaria faberi, pre-emergence, 312 h, evaluated after 13 days; for pest or weed control at 15.625 g/ha: 15.625 g ai/ha; for pest or weed control at 15.625 g/ha / pest or weed control at 250 g/ha: read-out: Foxtail, Giant damage rating (100=total damage to plant; 0=no damage to plant); for pest or weed control at 62.5 g/ha: 62.5 g ai/ha, 100=total damage to plant, 0=no damage to plant, read-out: plant damage rating, Foxtail, Giant; for pest or weed control at 250 g/ha: 250 g ai/ha
# Description: as §1, §2
# [5] = test system: barnyardgrass (Echinochloa crus-galli); experiment: Test G Pre-Emergence Protocol; details: Echinochloa crus-galli, pre-emergence, 312 h, evaluated after 13 days; for pest or weed control at 15.625 g/ha: 15.625 g ai/ha, read-out: Barnyard grass damage rating (100=total damage to plant; 0=no damage to plant); for pest or weed control at 62.5 g/ha: 62.5 g ai/ha, 100=total damage to plant, 0=no damage to plant, read-out: plant damage rating, Barnyardgrass; for pest or weed control at 250 g/ha: 250 g ai/ha, read-out: Barnyardgrass damage rating (100=total damage to plant; 0=no damage to plant)
# Description: as §1, §2
# [6] = test system: redroot pigweed (Amaranthus retroflexus); experiment: Test G Pre-Emergence Protocol; details: Amaranthus retroflexus, pre-emergence, 312 h, evaluated after 13 days; for pest or weed control at 15.625 g/ha: 15.625 g ai/ha; for pest or weed control at 15.625 g/ha / pest or weed control at 250 g/ha: read-out: Pigweed, Redroot damage rating (100=total damage to plant; 0=no damage to plant); for pest or weed control at 62.5 g/ha: 62.5 g ai/ha, 100=total damage to plant, 0=no damage to plant, read-out: plant damage rating, Pigweed, Redroot; for pest or weed control at 250 g/ha: 250 g ai/ha
# Description: as §1, §2
# corn (Zea mays) = experiment: Test G Pre-Emergence Protocol; details: Zea mays, pre-emergence, 312 h, evaluated after 13 days; for plant injury at 15.625 g/ha: 15.625 g ai/ha; for plant injury at 15.625 g/ha / plant injury at 250 g/ha: read-out: Corn damage rating (100=total damage to plant; 0=no damage to plant); for plant injury at 62.5 g/ha: 62.5 g ai/ha, 100=total damage to plant, 0=no damage to plant, read-out: plant damage rating, Corn; for plant injury at 250 g/ha: 250 g ai/ha
# Description: as §1, §2
# [7] = test system: velvetleaf (Abutilon theophrasti); experiment: Test G Pre-Emergence Protocol; details: Abutilon theophrasti, pre-emergence, 312 h, evaluated after 13 days; for pest or weed control at 15.625 g/ha: 15.625 g ai/ha; for pest or weed control at 15.625 g/ha / pest or weed control at 250 g/ha: read-out: Velvetleaf damage rating (100=total damage to plant; 0=no damage to plant); for pest or weed control at 62.5 g/ha: 62.5 g ai/ha, 100=total damage to plant, 0=no damage to plant, read-out: plant damage rating, Velvetleaf; for pest or weed control at 250 g/ha: 250 g ai/ha
# Description: as §1, §2
SMILES,"Plant response rating: Wheat, Spring ([1]; 31 g ai/ha)","Plant response rating: Wheat, Spring ([1]; 62 g ai/ha)","Plant response rating: Wheat, Spring ([1]; 125 g ai/ha)","Plant response rating: Wheat, Spring ([1]; 250 g ai/ha)","Plant response rating: Poinsettia, Wild ([2]; 31 g ai/ha)","Plant response rating: Poinsettia, Wild ([2]; 62 g ai/ha)","Plant response rating: Poinsettia, Wild ([2]; 125 g ai/ha)","Plant response rating: Poinsettia, Wild ([2]; 250 g ai/ha)",pest or weed control at 15.625 g/ha [3],pest or weed control at 62.5 g/ha [3],pest or weed control at 250 g/ha [3],pest or weed control at 15.625 g/ha [4],pest or weed control at 62.5 g/ha [4],pest or weed control at 250 g/ha [4],pest or weed control at 15.625 g/ha [5],pest or weed control at 62.5 g/ha [5],pest or weed control at 250 g/ha [5],pest or weed control at 15.625 g/ha [6],pest or weed control at 62.5 g/ha [6],pest or weed control at 250 g/ha [6],other results
CN1CC(c2ccc(C(F)(F)F)cc2)C(C(=O)Nc2ccccc2S(C)(=O)=O)C1=O (centres unmarked) [Compound 624],5,10,15,40,20,20,30,40,,,,,,,,,,,,,
CN1CC(c2cccc(C(F)(F)F)c2)C(C(=O)Nc2cccc(F)c2F)C1=O (centres unmarked) [Compound 636],20,40,45,80,,,,,,,,,,,,,,,,,
CN1CC(c2cccc(C(F)(F)F)c2)C(C(=O)Nc2ccccc2S(C)(=O)=O)C1=O (centres unmarked) [Compound 637],5,30,80,70,0,0,20,25,,,,,,,,,,,,,
Cc1ccc([C@H]2CN(C)C(=O)[C@@H]2C(=O)Nc2cccnc2F)cc1 [Compound 1398],,,,,,,,,0%,60%,80%,90%,90%,90%,80%,90%,90%,20%,60%,80%,plant injury at 15.625 g/ha (corn (Zea mays)): 20%; plant injury at 62.5 g/ha (corn (Zea mays)): 80%; plant injury at 250 g/ha (corn (Zea mays)): 90%; pest or weed control at 15.625 g/ha [7]: 0%; pest or weed control at 62.5 g/ha [7]: 60%; pest or weed control at 250 g/ha [7]: 80%
Cc1ccc([C@H]2CN(C)C(=O)[C@@H]2C(=O)Nc2ccc(F)nc2F)cc1 [Compound 1402],,,,,,,,,40%,70%,80%,90%,90%,90%,80%,90%,90%,0%,80%,80%,plant injury at 15.625 g/ha (corn (Zea mays)): 60%; plant injury at 62.5 g/ha (corn (Zea mays)): 80%; plant injury at 250 g/ha (corn (Zea mays)): 90%; pest or weed control at 15.625 g/ha [7]: 0%; pest or weed control at 62.5 g/ha [7]: 70%; pest or weed control at 250 g/ha [7]: 80%
